Consider two compounds from PMC4932603, “Identification, Characterization, and X-ray Crystallographic Analysis of a Novel Type of Mannose-Specific Lectin CGL1 from the Pacific Oyster Crassostrea gigas” (Scientific Reports, 2016).

In assay [1] the target is T1, nCGL1 (native CGL1) (Magallana gigas, UniProt K1QRB6).
T1 construct: gene CGI_10011001; native purification from oyster bodies (mannose-Cellulofine)
Nature of the assay: isothermal titration calorimetry. It counts as binding. Conditions: read-out: K / × 10^3 M^-1 (converted). From the text:
isothermal titration calorimetry on nCGL1 (native CGL1)
For orientation: Isothermal titration calorimetry measures the heat released or taken up as one component is titrated into another.

The target in assay [2] is CGL1 (preparation not told: native or recombinant) (Crassostrea gigas). In words: dynamic light scattering (DLS) + other: small angle X-ray scattering (SAXS); in an aqueous solution.

Take `CO[C@H]1O[C@H](CO)[C@@H](O)[C@H](O)[C@@H]1O` [α-MeMan]: the Kd in assay [1] is 671 µM.

On to “CGL1 (preparation not told: native or recombinant) (natural protein)”, for which the stoichiometry N (usually the number of molecules, sites or subunits per partner or assembly) in assay [2] worked out at 2.
